Assay results reported in ChEMBL document CHEMBL3507680, “University of Dundee, Gates Library screen for HepG2 cell viability”.

Experiment: Human HepG2 cell viability assay in 384 well format
Format: toxicity, cell-based
Parameters: dose 125 nL, time 70.5 hour; concentration not given beside the values
Conditions: HepG2 cells, read-out: Inhibition

SMILES	cytotoxicity at 70.5 h [%]
CCc1ncc2c(n1)CN(Cc1nc(-c3cccnc3)no1)CC2	-6.75
Cc1cc(CN2C[C@@H](N3CCN(C)CC3)[C@H]3OCCC[C@H]32)oc1C	-4.18
CC(C)c1cc(CN(C)C(=O)CN2CCCCC2=O)no1	13.9
CCNC(=O)[C@@H]1C[C@H](N)CN1C(=O)CCc1ccc(C)c(C)c1	-3.41
Cc1ncc(C(=O)N2CCOC(C(=O)N3CCCCC3)C2)c(C)n1 (stereo unspecified)	-3.05
COC(=O)[C@H](CC(C)C)NC(=O)c1snnc1-c1ccc(OC)cc1	10.9
Cc1nccn1-c1cccc(C2CCCN(C3CCCCC3)C2)n1 (stereo unspecified)	2.4
CN(Cc1nncn1C)C(=O)c1cc(COc2ccccc2F)[nH]n1	-11.1
O=C(NCCCO)c1cnc(-c2ccccc2)nc1O	-2.27
COc1ccc(CN2CCOCC3(CCN(C4CCOCC4)C3)C2)cc1 (stereo unspecified)	-5.87
CC(Cn1cccn1)NC(=O)N1CCCN(Cc2cccs2)CC1 (stereo unspecified)	-5.76
CCCN(CCC)c1ncc(S(=O)(=O)c2ccccc2)c(N)n1	-15.1
CCC(=O)N1CCCC1c1nccnc1Nc1ncccn1 (stereo unspecified)	-15
COCc1ccc(C(=O)N2CCN(CC3CC3)[C@@H]3CS(=O)(=O)C[C@@H]32)o1	-1.28
CCS(=O)(=O)N1CC[C@H]2OCC[C@@]2(c2nnc(C)o2)C1	-7.55
CCC(C(=O)Nc1ccc2nc(C)oc2c1)N1CCCC1=O (stereo unspecified)	20.5
COc1ccc(C(=O)N(CCO)Cc2ccccc2)c(OC)n1	21.2
O=C1NC[C@@]2(C(=O)O)CN(Cc3cccc(OC4CCCC4)c3)C[C@@H]12	-3
CNCC(=O)Nc1ccc(-c2cnc(NCCS(C)(=O)=O)nc2)cc1	-0.605
Cc1ccc(CN2CCC3(CC2)CCN(C(=O)c2cccnc2)C3)o1	-5.87
c1csc(-c2noc(CNC3CCc4ncnn4C3)n2)c1 (stereo unspecified)	-8.26

SMILES	cytotoxicity at 70.5 h [%]
CC(=O)N1CCC2(CC1)CN(C(=O)c1cccnc1)c1ccc(F)cc12	-3.83
Cc1nc(C2(NCc3cccc(F)c3F)CCCCC2)no1	-6.93
Cc1cc(CN2CCCC(c3cc(C(F)(F)F)[nH]n3)C2)no1 (stereo unspecified)	-15.8
Cc1ccc2c(c1)C(=O)NCC1(CCN(C(=O)c3cc(C)no3)CC1)O2	-7.27
COCCC(=O)N(Cc1ccccn1)Cc1ccccc1C	7.25
COc1ccc(-n2ccc(C(=O)N(C)C(C)C3(C)CC3)n2)cc1 (stereo unspecified)	21.1
CC(C)(C)NC(=O)NC(=O)COc1nc(C(C)(C)C)no1	13
NC(=O)c1cc(NC(=O)N2CCOCC2)ccc1F	9.19
Cc1ccc(CC(=O)N2Cc3nccn3CC(Cn3cccn3)C2)cc1 (stereo unspecified)	-0.504
CN1CCC(Cc2cc(N(C)C)ncn2)C1 (stereo unspecified)	5.25
CCN(Cc1cccc(F)c1)Cn1nc(C)c2c(C)onc2c1=O	-8.8
O=C(CCN1CCc2[nH]nc(C(F)(F)F)c2C1)Nc1ccccc1	-2.13
O=C(c1nc(=O)[nH]c2ccccc12)N1CCCC(CC2CC2)(C(=O)O)C1 (stereo unspecified)	-8.79
CSCC(=O)N[C@H]1CN(Cc2c(C)noc2C)C[C@@H]1C(C)C	-0.898
c1cnc(N2CCOCC3(CN(Cc4ccsc4)CCO3)C2)nc1 (stereo unspecified)	-3.74
c1cc(CNc2nnc(Cc3ccsc3)o2)cs1	-8.44
CN1CC2(CCCN(Cc3cccc(CCN)c3)C2)OC1=O (stereo unspecified)	2.55
COCC1c2c(cnn2C)CCN1C(=O)c1ccc2c(c1)OCO2 (stereo unspecified)	1.82
Cc1cc(CN(C)C(=O)NC2CCS(=O)(=O)C2)no1 (stereo unspecified)	-15.8
CN1CC(c2cc(O)nc(NCc3ccc(Cl)cc3)n2)CC1=O (stereo unspecified)	-5.19
N#Cc1ccc(CNC(=O)C2=NN(c3ccccc3)C(=O)CN2)cc1	-7.68

SMILES	cytotoxicity at 70.5 h [%]
CS(=O)(=O)NCc1ccc(NC(=O)CC2=CCCCC2)cc1	-0.966
Cn1cc(C(=O)N2CCO[C@@H]3CN(C4CCC4)C[C@@H]3C2)cn1	-3.32
Cc1ccc(CN2CCCC3(CCCCN3S(C)(=O)=O)C2)s1 (stereo unspecified)	19.2
COc1ccsc1C(=O)N1CCCC(n2nc(C)cc2C)C1 (stereo unspecified)	-3.66
O=C(CCN1CCc2c(ncn2C2CC2)C1)NC1CCCC1	-6.41
Cc1nc(N2CCCC(OCc3ccccn3)C2)c2c(C)noc2n1 (stereo unspecified)	-9.19
COc1ccc(CCNC(=O)NCc2cccc(C(N)=O)c2)cc1OC	-15
c1ccc(CNCC2Cn3nnc(-c4ccncc4)c3CO2)nc1 (stereo unspecified)	-4.04
O=C1CN(C(=O)C2CCOCC2)CCN1Cc1ccc(Cl)cc1	0.576
CC(NC(=O)CCc1ccsc1)c1ccc2c(c1)NC(=O)CO2 (stereo unspecified)	-6.31
CCCc1cc(C(=O)NCCn2nc3ccccn3c2=O)[nH]n1	-9.65
CC(=O)c1cccc(OC(C)C(=O)Nc2cnn(CCN(C)C)c2)c1 (stereo unspecified)	-12.3
Cc1nn(C)cc1-c1ccnc(N(C)Cc2cnn(C)c2)n1	-2.26
CCSc1cncc(N2CCC(NC(=O)C3CCCCC3)CC2)n1	-13.5
CN(Cc1ccccc1NCc1cccnc1)C(=O)c1cccs1	-2.02
Cn1cnc2cc(NC(=O)c3n[nH]c4c3CCC4)ccc21	-3.46
CC(CNC1CCN(c2ccccn2)CC1)Oc1ccc(F)cc1 (stereo unspecified)	23.5
CS(=O)(=O)N1C[C@H]2CCC[C@@]2(COc2ccccn2)C1	-16.1
Cc1ccc(C(=O)N2CCN(C)C3(CCC(=O)N(C)CC3)C2)c(F)c1 (stereo unspecified)	-9.61
Cn1cc(C(=O)NCc2ccc(N3CCCC3)nc2)ccc1=O	-8.81
Cc1ccc(OCCCC(=O)Nc2nonc2C)cc1C	12

SMILES	cytotoxicity at 70.5 h [%]
CCOCC1CN(CC2CC2)Cc2nn(C)cc21 (stereo unspecified)	-4.39
CCn1ncc(Cn2cc(Cl)c(N)n2)c1C	19.5
CCCS(=O)(=O)N1CCCC(c2cccc(C(=O)O)c2)C1 (stereo unspecified)	-9.39
O=C(CSCC1CC1)N1CCCC(c2nccn2Cc2ccccn2)C1 (stereo unspecified)	0.457
N#Cc1ccc(C(=O)N2C[C@@H](CN3CCCC3)C[C@H](CO)C2)cc1	-2.46
CC1(C(=O)NC2CCCC2)CN(c2cnccn2)CCO1 (stereo unspecified)	-13.6
CCc1ncc(C(=O)NC(C)(C)C(=O)OC)s1	12.2
CS(=O)(=O)N1CCC2(CC1)CC(NCC1CC1)c1ccccc12 (stereo unspecified)	-7.3
COc1ccc(-c2cc(C(=O)NCCC(C)C)n(C)n2)cc1	4.25
COc1cccn(CC(=O)N2CCCC3(CCCCC3)C2)c1=O	-4.6
N#Cc1cccc(OCCN2CCCC2C(=O)NCC(F)(F)F)c1 (stereo unspecified)	-0.526
CCN1C(=O)C[C@@H]2[C@@H]1CCN2S(=O)(=O)c1cccc(C)c1	12.1
Cn1cc(CN2C[C@@H]3OCCN(c4ncccn4)[C@@H]3C2)cn1	1.07
O=C(c1cccnc1)N1CCn2nnc(COc3ccccn3)c2C1	-14.2
COc1ccc(Br)c(C(=O)N2CCC(c3n[nH]c(C4CC4)n3)CC2)c1	3.76
COc1ccc(NC(=O)NCc2ccnc(N(C)C)c2)cn1	14.3
CC(=O)N1CCCN(C(=O)CCOc2ccc(C(C)C)cc2)CC1	21.2
CCCn1[nH]cc/c1=N\C(=O)CN1CCCC1c1cccn1C (stereo unspecified)	-2.18
